“Also recorded” adds a separate entry of the source. Where a name gives a salt, the structure may show the parent alone.
Tests used:
cytochrome c = assay: Cytochrome c release from mitochondria to cytosol (Western blot); type: in vivo, mouse; details: brain tissue 3 hours after ADR
Experimental: Western blot analyses of cytochrome c and succinate dehydrogenase or β-actin were determined in mitochondrial or cytosolic fractions isolated from brain tissues 3 hours after mice were treated with ADR, and anti-TNF antibody immediately followed by ADR, and anti-TNF antibody, IgG, or saline as controls. Cytochrome c was decreased in mitochondria (*P<0.01) but increased cytosol after treatment with ADR or IgG followed by ADR. Succinate dehydrogenase or β-actin were used to normalize for protein loading. The Western blots shown a re a representative set of data of n=3 separate sets from individual animals. Quantification of all the data

[1] = system: mitochondrial respiration complex I; assay: Brain mitochondrial respiration, complex I (pyruvate + malate), respiration control ratio; details: 3 hours after treatment, hydrochloride
Experimental: Mice were perfused via cardiac puncture with cold mitochondrial isolation buffer, the brain promptly removed, the cerebellum dissected away, and mitochondria immediately isolated from the freshly brain by a modification of the method described by Mattiazzi et al. (2002). Brain mitochondria were isolated in cold mitochondrial isolation buffer, containing 0.07 M sucrose, 0.22 M mannitol, 20 mM HEPES, 1 mM EGTA, and 1% bovine serum albumin, pH 7.2. Tissues were homogenized with a Dounce homogenizer and centrifuged at 1,500×g at 4° C. for 5 minutes before transferring the supernatant. The pellets were resuspended and centrifuged at 1,500×g at 4° C. for 5 minutes. The supernatants were combined and centrifuged at 13,500×g at 4° C. for 10 minutes. Mitochondrial pellets were washed twice and finally resuspended in 50-100 μL cold isolation buffer. Protein concentration of isolated mitochondria was determined by the Bradford assay (Bradford, 1976). The final protein concentration was 20-40 mg/ml.
Mitochondrial respiration was determined using Clark-type polarographic oxygen sensors (Hansatech Instruments, Kings Lynn, Norfolk, UK) to measure the rate of oxygen consumption. Freshly isolated mitochondria were suspended in respiration buffer at a concentration of 0.5 mg mitochondrial protein per mL of respiration buffer, which consists of 0.25 M sucrose, 50 mM HEPES, 1 mM EGTA, 10 mM KH2PO4, and 2 mM MgCl2, pH 7.4. Oxygen consumption was measured with either pyruvate (10 mM) plus malate (10 mM) or succinate (10 mM) as substrates for respiration from complex I or complex II in the absence of exogenous ADP (state II) and after addition of 300 mM ADP (state III respiration). Rotenone (5 μM) was added to the reaction to inhibit respiration from complex I when succinate was used as the substrate. […] FCCP (1 μM), an uncoupling agent, was added as a control of respiration. Respiration control ratios (RCR) were calculated as the ratios of state III and state II respiration as described previously by Estabrook (1967). The unit for state II rate and state III rate is nmole/min/mg protein.
Mice were perfused via cardiac puncture with cold mitochondrial isolation buffer, the brain promptly removed, the cerebellum dissected away, and mitochondria immediately isolated from the freshly brain by a modification of the method described by Mattiazzi et al. (2002). Brain mitochondria were isolated in cold mitochondrial isolation buffer, containing 0.07 M sucrose, 0.22 M mannitol, 20 mM HEPES, 1 mM EGTA, and 1% bovine serum albumin, pH 7.2. Tissues were homogenized with a Dounce homogenizer and centrifuged at 1,500×g at 4° C. for 3 minutes before transferring the supernatant fluid. The pellets were resuspended and centrifuged at 1,500×g at 4° C. for 3 minutes. The supernatant fluids were combined and centrifuged at 1,500×g at 4° C. for 3 minutes. These supernatant fluids were then centrifuged at 13,500×g at 4° C. for 10 minutes. Mitochondrial pellets were washed twice and finally resuspended in 50-100 μL cold isolation buffer. Protein concentration of isolated mitochondria was determined by the Bradford assay (Bradford, 1976).
Mitochondrial respiration was determined using Clark-type polarographic oxygen sensors (Hansatech Instruments, UK) to measure the rate of oxygen consumption. Freshly-isolated mitochondria were suspended in respiration buffer at a concentration of 0.5 mg mitochondrial protein/mL respiration buffer, which consisted of 0.25 M sucrose, 50 mM HEPES, 1 mM EGTA, 10 mM KH2PO4, 2 mM MgCl2 and 0.2% BSA, pH 7.4. Oxygen consumption was measured with either pyruvate (10 mM) or pyruvate plus malate (10 mM) as substrates for respiration from complex I, in the absence of exogenous ADP (state II), and after addition of 300 mM ADP (state III respiration). […] FCCP (1 μM), an uncoupling agent, was added as a control respiration. Respiration control ratios (RCR) were calculated as the ratios of state III and state II respiration.

iNOS mRNA = iNOS mRNA expression in brain tissues (RT-PCR); type: in vivo, mouse; details: wild-type mice, 3 hours after treatment, vs saline controls
Experimental: At 3 hours after treatment, mice were anesthetized and perfused via cardiac puncture with 0.1 M PBS, pH 7.4. The MRNA was isolated using the Micro-FastTrack 2.0 Kit (Invitrogen, Groningen, Netherlands) according to the manufacturer's instructions. The purified MRNA (5 μg) was subjected to reverse-transcription into first strand cDNA in each 20 μL of reaction mixture using the SuperScript III First-Strand Synthesis System for RT-PCR (Invitrogen) according to the manufacturer's instruction. A 25 μL PCR reaction contained 5 μL first strand cDNA, 0.1 U Taq DNA polymerase (Invitrogen), 10 mM 10×PCR buffer, 1.5 mM MgCl2, 2.5 mM dNTP and 10 pmol of each specific primer. PCR samples were subjected to the following conditions: 35 cycles for iNOS (94° C.: 1 minute; 65° C.: 1 minute; 72° C.: 1 minute), 32 cycles for β-actin (94° C.: […]; 55° C.: 30 s; 72° C.: 10 minutes), on a thermocycle (Perkin-Elmer). The primers with the target gene sequences were synthesized by Invitrogen. The primer sequence iNOS was 5′-CTGATGGTCAAGATCCAG-A-GGTCT-3′ (forward) and 5′-[…]-CTCT-3′(reverse), and the primer for β-actin was 5′-TGTTAC-CAACTGGGACGACA-3′ (forward) and 5′-CTGGGTCATCTT-TTCACCGT-3′ (reverse). After amplification, PCR products were subjected to 1% agarose gel electrophoresis, and visualized by ethidium bromide staining. The relative density of bands was analyzed under ultraviolet light (Bio-Rad). Experiments were repeated three times for reproducibility.

[2] = seventy-two hours after a single intraperitoneal injection of ADR; cited from earlier work
p53 and Bcl-xL complex = assay: Co-immunoprecipitation of p53 with Bcl-xL in brain mitochondria; type: in vivo, mouse; details: after ADR, vs saline control; hydrochloride
Experimental: Isolated mitochondrial protein (500 μg) was resuspended in 500 μL RIPA buffer (9.1 mM Na2HPO4, 1.7 mM NaH2PO4, 150 mM NaCl, 0.5% sodium deoxycholate, 1% v/v Nonidet P40, 0.1% sodium dodecyl sulfate, pH 7.2). Protease inhibitors (0.1 mg PMSF and 1 μg aprotinin per mL RIPA) were added at the time of use followed by incubation with 5 μg/mL of mouse p53 antibody (Ab-11, Oncogene) at 4° C. overnight. Protein A/G-Agarose (50 μL) was added to the reaction mixture with the antibody. Immunocomplexes were collected by centrifugation at 1,000×g at 4° C. for 5 minutes, then washed four times with RIPA buffer. Immunoprecipitated samples were recovered by resuspending in 2×sample loading buffer, and p53 or Bcl-xL (Santa Cruz Biotechnology, Santa Cruz, Calif.) proteins were detected by Western blot. Immunoreactivity was evaluated on immunoblots by densitrometric analysis using a Bio-RAD densitometer (Bio-RAD Laboratory, Inc, Hercules, Calif., USA).

TNF α = assay: Immunofluorescence of TNF α localization in neurons of cortex and hippocampus (MAP2 co-staining); type: in vivo, mouse; details: 3 hours after 20 mg/kg ADR, vs saline; hydrochloride
Experimental: Brain tissue slices were fixed in 4% paraformaldehyde for 15 minutes, air dried, and washed with PBS. Non-specific proteins were blocked in blocking serum, consisting of 3% normal donkey's serum, and 0.3% Triton x-100 in PBS, and incubated at room temperature for 30 minutes. After blocking, slices were incubated with primary anti-TNF α (Upstate, Lake Placid, N.Y.), and anti-MAP2 antibody (Chemicon, Temecula, Calif.) was used as a neuronal marker, in order to study the location of TNF α in neurons of cortical and hippocampal regions. The sections were kept in a humidified box at 4° C. overnight. Tissues were washed three times with PBS and then were incubated for 1 hour with donkey antibody-conjugated secondary antibodies coated with fluorescent dyes. Excess secondary antibodies were removed by washing three times in PBS and once with deionized H2O. Tissue slides were mounted with mounting medium (Vectashield, HOURS-100, Vector Laboratories, Burlingame, Calif.). Photomicrographs were obtained using a Leica confocal fluorescence microscope (Leica Microsystems Inc., Bannockburn, Ill., USA).

MnSOD, CuZnSOD = assay: MnSOD and CuZnSOD protein levels in brain homogenates (western blot); type: in vivo, mouse; details: wild-type and iNOSKO mice, 3 hours after ADR 20 mg/kg
Experimental: Brains were perfused, the cerebellum removed and the brain dissected from mice treated with i.p. ADR 20 mg/kg, or saline as a control, for 3 hours. Brains were placed in ice-cold 50 mM PBS, pH 7.4, containing the protease inhibitors 4 μg leupeptin, 4 μg pepstatin, and 5 μg aprotinin, washed and chopped in ice-cold PBS containing protease inhibitors. Tissues were homogenized with a Potter-Elvehjem glass homogenizer with a loose fitting Teflon® pestle, and protein concentration was determined by the Bradford assay (Bradford, 1976). Brain homogenate proteins were size-separated using denaturing sodium dodecyl sulfate-polyacrylamide gel electrophoresis (SDS-PAGE). Proteins (50 μg) were electrophoresed on 12.5% SDS-PAGE and transferred to a nitrocellulose membrane. The membrane was blocked for 1 hour at room temperature in blocking solution consisting of 5% non-fat dried milk, Tris-buffered saline (TBST; 10 mM Tris-HC, 150 mM NaCl, 0.05% Tween 20), pH 7.9. After blocking, the membrane was incubated overnight at 4° C. with primary antibodies against MnSOD (Upstate, Lake Placid, N.Y., USA), Cu/ZnSOD (Calbiochem, San Diego, Calif., USA) and β-actin (Sigma) in blocking solution. […] Immunoreactivities of the protein bands were detected by enhanced chemiluminescence autoradiography (ECL; Amersham Phamacia Biotech, Arlington Heights, Ill., USA) as described by the manufacturer.

SMILES: COc1cccc2c1C(=O)c1c(O)c3c(c(O)c1C2=O)C[C@@](O)(C(=O)CO)C[C@@H]3O[C@H]1C[C@H](N)[C@H](O)[C@H](C)O1 [ADR, Doxorubicin hydrochloride]
- Cytochrome c in cytosolic fraction (cytochrome c): increased
- Cytochrome c in mitochondrial fraction (cytochrome c): decreased
- Brain mitochondrial respiration complex I (RCR) ([1]; iNOSKO mice): no effect; also recorded: not in iNOSKO mice
- Brain mitochondrial respiration complex I (RCR, state III / state II) ([1]; wild-type mice, vs saline control): significantly decreased; also recorded: decline
- iNOS mRNA levels in brain tissues (iNOS mRNA): significantly increased
- Levels of protein oxidation and lipid peroxidation in brain tissues [2]: significant increase
- p53 and Bcl-xL complex in brain mitochondria (Bcl-xL bands after anti-p53 immunoprecipitation) (p53 and Bcl-xL complex): specific increases of p53 and Bcl-xL; also recorded: increased at 3 hours
- TNF α in neurons of cortex (TNF α): clearly were increased
- TNF α in neurons of hippocampus (TNF α): clearly were increased
- CuZnSOD protein level in brain homogenates (MnSOD, CuZnSOD): no change
- MnSOD protein level in brain homogenates (MnSOD, CuZnSOD): no change

— US20080131432A1, “Method of treating the chemotoxic effects of chemotherapeutic drugs on brain tissue” (University of Kentucky Research Foundation, priority 2005, published 2008)
